For data set [1], the system named is P-gp. Briefly: Substrate activity at P-gp in dog MDCK cells assessed as efflux ratio. Format: ADME, cell-based, Canis lupus familiaris. The following applies: MDCK-MDR1.
Data set [2] is described as follows: Anti-invasion activity against human SCC-13 cells assessed as inhibition of invasion incubated for 18 hrs by matrigel trans well plate assay. The note with it: SCC-13, 18 h. The data set is classed as functional, cell-based.
A short description of data set [3]: Plasma protein binding (unknown origin). The data set is classed as ADME, cell-free. The note with it: read-out: PPB (converted).
Data set [4] concerns MDR1 (P-gp). Briefly: Efflux ratio of apparent permeability in dog MDCK-MDR1 cells. Format: ADME, cell-based, Canis lupus familiaris.
Data set [5] can be described thus: Plasma protein binding (unknown origin) assessed as drug recovery. The data set is classed as ADME, cell-free. The following applies: read-out: Drug recovery.
Data set [6] has as its target T1, Protein-glutamine gamma-glutamyltransferase (Homo sapiens) (UniProt P21980).
T1 sequence (whole entry): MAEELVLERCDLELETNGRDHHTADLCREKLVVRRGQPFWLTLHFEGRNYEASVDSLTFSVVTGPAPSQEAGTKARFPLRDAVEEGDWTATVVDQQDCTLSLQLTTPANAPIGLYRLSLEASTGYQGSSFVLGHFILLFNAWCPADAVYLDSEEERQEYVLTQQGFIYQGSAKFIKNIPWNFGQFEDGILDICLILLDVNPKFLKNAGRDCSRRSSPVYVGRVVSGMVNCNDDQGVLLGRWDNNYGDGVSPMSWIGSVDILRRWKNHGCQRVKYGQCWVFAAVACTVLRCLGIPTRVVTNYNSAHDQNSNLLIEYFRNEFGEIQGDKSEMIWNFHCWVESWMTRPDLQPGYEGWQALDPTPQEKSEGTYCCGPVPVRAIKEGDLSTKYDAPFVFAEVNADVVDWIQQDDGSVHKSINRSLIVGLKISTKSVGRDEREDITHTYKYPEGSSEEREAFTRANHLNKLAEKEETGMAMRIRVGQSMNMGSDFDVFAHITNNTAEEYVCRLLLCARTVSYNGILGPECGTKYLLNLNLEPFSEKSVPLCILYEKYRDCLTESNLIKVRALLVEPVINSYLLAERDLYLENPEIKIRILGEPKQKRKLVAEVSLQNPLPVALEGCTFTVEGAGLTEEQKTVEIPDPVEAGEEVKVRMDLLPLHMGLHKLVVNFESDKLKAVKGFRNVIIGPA
Briefly: Inhibition of GTP binding to TG2 (unknown origin) measured by GTP Gamma-S-FL BODIPY assay.

Data set [7] concerns the target T1, Protein-glutamine gamma-glutamyltransferase (Homo sapiens). Briefly: Inhibition of TG2 (unknown origin) using Cbz-Glu(gamma-p-nitrophenyl ester)Gly (AL5) as substrate and measured by colorimetric assay.
The test system of data set [8] is P-gp. Briefly: Substrate activity at P-gp in dog MDCK cells assessed as apparent permeability across basolateral to apical membrane. The following applies: MDCK-MDR1. The data set is classed as ADME, cell-based, Canis lupus familiaris.
Data set [9] is described as follows: Half-life in plasma (unknown origin). The data set is classed as ADME, cell-free.
Data set [10] deals with T1, Protein-glutamine gamma-glutamyltransferase (Homo sapiens). Briefly: Inhibition of TG2 (unknown origin) using Cbz-Glu(gamma-p-nitrophenyl ester)Gly (AL5) as substrate assessed as Kinact/Ki ratio and measured by colorimetric assay.
The test system of data set [11] is MDR1 (P-gp). Briefly: Apparent permeability from apical to basolateral side in dog MDCK-MDR1 cells. Format: ADME, cell-based, Canis lupus familiaris.
The subject of data set [12] is MDR1 (P-gp). Briefly: Apparent permeability from basolateral to apical side in dog MDCK-MDR1 cells. Format: ADME, cell-based, Canis lupus familiaris.
In data set [13] the test system is P-gp. Briefly: Substrate activity at P-gp in dog MDCK cells assessed as apparent permeability across apical to basolateral membrane. The data set is classed as ADME, cell-based, Canis lupus familiaris. The following applies: MDCK-MDR1.

Calls of active or inactive are those of the source. No cut-off for these calls is given here.

By efflux ratio is commonly meant the permeability from basolateral to apical divided by that in the opposite direction, in the common usage. Broadly, the EC50 is the concentration needed to bring the measured effect to its halfway point. As usually defined, the Papp B→A is how fast a substance crosses the layer from the basolateral side. As usually defined, the half-life is how long it takes for the measured level to halve. Low values mean rapid decline, high ones slow decline. For orientation: Papp A→B means the apparent permeability from the apical to the basolateral side of a cell layer. Consider `C=CC(=O)NCCCC[C@H](NC(=O)Cc1ccccc1F)C(=O)N1CCN(C(=O)c2cccc3ccccc23)CC1`, for which the figures for the efflux ratio in data set [1] and in data set [4] were 1.3 and 61.7, respectively. Further, the EC50 in data set [2] is 77 µM. Moreover, in data set [3], the fraction unbound was 0.16. Also, in [5], the recovery is 86%. In addition, in data set [6], the inhibition entry was “Active”. For the same molecule, in data set [7], the Kinact is 0.46 min⁻¹. In addition, the Papp B→A worked out at 2.8 ×10⁻⁶ cm/s in [8] and 18.2 ×10⁻⁶ cm/s in data set [12]. This molecule also came in with a half-life in [9] of 17.9 h. In addition, the Ratio in [10] is 443 10^3/M/min. Also, the values for the Papp A→B in data set [11] and in [13] were 0.29 ×10⁻⁶ cm/s and 2.2 ×10⁻⁶ cm/s, respectively.

For the origin of these results see ChEMBL document CHEMBL5154739, “Structure-activity relationships of N-terminal variants of peptidomimetic tissue transglutaminase inhibitors” (Eur J Med Chem, 2022).
